Tested on: full-length IRE1α in INS-1 rat insulinoma cells
Assay: XBP1 mRNA splicing in INS-1 cells
Assay type: cell-based
Conditions: absence of ER stress; for spliced cellular XBP1 mRNA levels: 3 and 10 μM, 2 hours

| SMILES | spliced cellular XBP1 mRNA levels | spliced XBP1 mRNA level compared with 0.5 μg/mL tunicamycin |
| --- | --- | --- |
| NC(=O)Nc1cc(-c2cccc(F)c2)sc1C(=O)N[C@H]1CCCNC1 [AZD7762] | increase in spliced cellular XBP1 mRNA levels |  |
| COc1cc(N2CCC(N3CCN(C)CC3)CC2)ccc1Nc1ncc(Cl)c(Nc2ccccc2P(C)(C)=O)n1 [AP26113] | increase in spliced cellular XBP1 mRNA levels | equal or greater level |
| O=C(Nc1c[nH]nc1-c1nc2ccc(CN3CCOCC3)cc2[nH]1)NC1CC1 [AT9283] | increase in spliced cellular XBP1 mRNA levels | equal or greater level |
| COc1cc(N2CCC(N3CCN(C)CC3)CC2)ccc1Nc1ncc(Cl)c(Nc2ccccc2S(=O)(=O)C(C)C)n1 [TAE684] | increase in spliced cellular XBP1 mRNA levels |  |

From publication PMC4992410 (ACS chemical biology, 2016)
